# Assay results published in patent US9944611B2, “Polymerizable resins containing a 1,3,5-hexahydro-1,3,5-triazine moiety, methods of making, and dental compositions containing the same” (DENTSPLY SIRONA INC., priority 2013, dated 2018).
# Assay: Solubility of hydroxy-terminated TAT derivatives in water/EtOH (1:1)
# Type: physicochemical
# Text: A sample of each of the examples was then subjected to further characterization and testing, including by NMR, along with pure TAT. The results are summarized in Table 1, which illustrates, among other things, that the increased amounts of DEA improved the solubility: […]
structure (smiles),measurement,value
"C=CC(=O)N1CN(C(=O)C=C)CN(C(=O)C=C)C1 [Parent Sample (TAT), 1,3,5-triacryloyl-hexahydro-1,3,5-triazine]",Solubility in water/EtOH (1:1) @ 25% w/w,insoluble
